From US10947188B2, “Small molecule ferroptosis inducers” (THE TRUSTEES OF COLUMBIA UNIVERSITY IN THE CITY OF NEW YORK, priority 2016, dated 2021)
Where two headings read alike, the source gives them in different places. Where a SMILES comes first, the peptide text is derived from it. The star is where a group is joined. Cbz = O=C(OCc1ccccc1)*

Test system: HT-1080
Test: Modulatory profiling: Alamar Blue viability, lethal compound cotreated with death modulator (EC50, AUC)
Format: cell-based
Design: AUC, modulator HT.3MA / AUC, modulator HT.ALLN / AUC HT.ATA / AUC HT.ActD / AUC HT.BHA / AUC HT.BHT / AUC HT.BocD / AUC HT.CHX / AUC HT.Co2+ / AUC HT.DPQ / AUC HT.EGTA / AUC HT.Lmim / AUC HT.NAD+ / AUC HT.Nec-1 / AUC HT.SP600125 / AUC HT.TLCK / AUC HT.U0126: unit not given beside the values
Settings: for AUC HT.ATA: HT-1080, modulator ATA; for AUC HT.ActD: HT-1080, modulator ActD; for AUC HT.BHA: HT-1080, modulator BHA; for AUC HT.BHT: HT-1080, modulator BHT; for AUC HT.BocD: HT-1080, modulator BocD; for AUC HT.CHX: HT-1080, modulator CHX; for AUC HT.Co2+: HT-1080, modulator Co2+; for AUC HT.CspA: HT-1080, modulator CspA; for AUC HT.DPQ: HT-1080, modulator DPQ; for AUC HT.Gd3+: HT-1080, modulator Gd3+; for AUC HT.LNAME: HT-1080, modulator LNAME; for AUC HT.Lmim: HT-1080, modulator Lmim; for AUC HT.NAD+: HT-1080, modulator NAD+; for AUC HT.NMMA: HT-1080, modulator NMMA; for AUC HT.Nec-1: HT-1080, modulator Nec-1; for AUC HT.Pepstatin: HT-1080, modulator Pepstatin; for AUC HT.SP600125: HT-1080, modulator SP600125; for AUC HT.TLCK: HT-1080, modulator TLCK; for AUC HT.U0126: HT-1080, modulator U0126; for HT.atoc (AUC) / HT.bCarotene (AUC) / HT.deferox (AUC) / HT.digoxin (AUC) / HT.trolox (AUC) / HT.zVAD (AUC): HT-1080; for HT.atoc (AUC): modulator atoc; for HT.bCarotene (AUC): modulator bCarotene; for HT.deferox (AUC): modulator deferox; for HT.digoxin (AUC): modulator digoxin; for HT.trolox (AUC): modulator trolox; for HT.zVAD (AUC): modulator zVAD; for AUC, modulator HT.3MA / AUC, modulator HT.ALLN: HT-1080 cells, modulatory profile value (AUC); for AUC, modulator HT.3MA: lethal compound cotreated with modulator 3MA; for AUC, modulator HT.ALLN: lethal compound cotreated with modulator ALLN

Row | Compound | AUC HT.ATA | AUC HT.ActD | AUC HT.BHA | AUC HT.BHT | AUC HT.BocD | AUC HT.CHX | AUC HT.Co2+ | AUC HT.CspA | AUC HT.DPQ | AUC HT.Gd3+ | AUC HT.LNAME | AUC HT.Lmim | AUC HT.NAD+ | AUC HT.NMMA | AUC HT.Nec-1 | AUC HT.Pepstatin | AUC HT.SP600125 | AUC HT.TLCK | AUC HT.U0126 | HT.atoc (AUC) | also measured
1 | COc1cc([C@@H]2c3cc4c(cc3[C@@H](O[C@@H]3O[C@@H]5CO[C@@H](C)O[C@H]5[C@H](O)[C@H]3O)[C@H]3COC(=O)[C@H]23)OCO4)cc(OC)c1O [Etoposide] | −0.0363 | −0.09944 | 0.04757 | −0.0005481 | 0.05886 | 0.113 | 0.3926 | −0.177 | 0.006422 | 0.02668 | 0.005444 | 0.05001 | 0.0527 | 0.01603 | −0.005949 | −0.001737 | 0.00478 | 0.1489 | −0.02627 | −0.006276 | AUC HT.EGTA (HT-1080, modulator EGTA): 0.02457; HT.bCarotene (AUC): 0.00393; HT.deferox (AUC): 0.1428; HT.digoxin (AUC): 0.1311; HT.trolox (AUC): 0.01328; HT.zVAD (AUC): 0.03817; AUC, modulator HT.3MA: 0.007208; AUC, modulator HT.ALLN: 0.03277
2 | CC(C)C[C@@H](C=O)NC(=O)[C@H](CC(C)C)NC(=O)[C@H](CC(C)C)NC(=O)OCc1ccccc1 [MG132, reference compound] (Cbz-Leu-Leu-Leu-aldehyde) | 0.005768 | −0.06417 | −0.1238 | −0.1271 | 0.002051 | 0.04854 | −0.05705 | −0.3221 | −0.02406 | −0.011 | 5.1006E−05 | 0.001338 | 0.03798 | 0.01064 | −0.09728 | −0.02733 | −0.03431 | 0.01546 | −0.071 | 0.04884 | AUC HT.EGTA: 0.007775; HT.bCarotene (AUC): 7.0861E−05; HT.deferox (AUC): −0.1162; HT.digoxin (AUC): 0.08352; HT.trolox (AUC): −0.01616; HT.zVAD (AUC): −0.0992; AUC, modulator HT.3MA: −0.03392; AUC, modulator HT.ALLN: −0.2149
3 | Nc1ccccc1NC(=O)c1ccc(CNC(=O)OCc2cccnc2)cc1 [MS275] | 0.0212 | −0.1982 | −0.04868 | −0.1794 | 0.02448 | −0.1189 | −0.1027 | −0.1886 | −0.01058 | −0.01027 | 0.004204 | −0.09728 | 0.0008794 | −0.00333 | −0.05557 | −0.01654 | −0.09903 | −0.02404 | −0.01884 | −0.01016 | AUC HT.EGTA: −0.005811; HT.bCarotene (AUC): −0.03005; HT.deferox (AUC): −0.1653; HT.digoxin (AUC): −0.1793; HT.trolox (AUC): −0.02599; HT.zVAD (AUC): 0.0222; AUC, modulator HT.3MA: −0.09204; AUC, modulator HT.ALLN: −0.1325
4 | O=C1c2c(O)ccc(O)c2C(=O)c2c(NCCNCCO)ccc(NCCNCCO)c21 [Mitoxantrone] | 0.02422 | −0.02073 | 0.02091 | −0.0249 | 0.06802 | 0.04002 | 0.3817 | −0.1127 | 0.006504 | 0.03227 | 0.01298 | 0.05678 | 0.1502 | 0.0236 | 0.01073 | 0.02067 | −0.01575 | 0.06003 | −0.03205 | 0.04839 | AUC HT.EGTA (HT-1080, modulator EGTA): 0.01802; HT.bCarotene (AUC): −0.003915; HT.deferox (AUC): 0.1001; HT.digoxin (AUC): 0.1321; HT.trolox (AUC): −0.01388; HT.zVAD (AUC): 0.03446; AUC, modulator HT.3MA: 0.02955; AUC, modulator HT.ALLN: 0.07355
5 | COc1cc([C@@H]2c3cc4c(cc3[C@H](O)[C@H]3COC(=O)[C@H]23)OCO4)cc(OC)c1OC [Podophyllotoxin] | 0.1206 | −0.0009195 | 0.02739 | 0.0008586 | 0.0984 | 0.07197 | 0.1102 | −0.07592 | 0.005964 | 0.00916 | −0.004926 | 0.1098 | 0.1318 | 0.000472 | −0.0001825 | −0.0005129 | −0.02768 | 0.06978 | 0.1354 | −0.02023 | AUC HT.EGTA (HT-1080, modulator EGTA): 0.01145; HT.bCarotene (AUC): 0.0009225; HT.deferox (AUC): 0.3104; HT.digoxin (AUC): 0.1098; HT.trolox (AUC): 0.0103; HT.zVAD (AUC): 0.09402; AUC, modulator HT.3MA: 0.001351; AUC, modulator HT.ALLN: 0.1572
6 | COC(=O)c1ccc([C@@H]2c3[nH]c4ccccc4c3C[C@@H](C(=O)OC)N2C(=O)CCl)cc1 [RSL3, reference compound] | −0.04539 | −0.08579 | 0.3798 | 0.2444 | −0.01184 | −0.05099 | −0.1948 | −0.1268 | 0.1653 | −0.01265 | −0.01081 | 0.3302 | 0.007883 | −0.00551 | 0.07095 | −0.01327 | −0.1319 | 0.3152 | 0.3972 | 0.4471 | AUC HT.EGTA (HT-1080, modulator EGTA): 0.03696; HT.bCarotene (AUC): −0.01346; HT.deferox (AUC): 0.3508; HT.digoxin (AUC): −0.1463; HT.trolox (AUC): 0.4213; HT.zVAD (AUC): −0.01599; AUC, modulator HT.3MA: −0.07471; AUC, modulator HT.ALLN: −0.03802
7 | C=C(C)[C@H]1Cc2c(ccc3c2O[C@@H]2COc4cc(OC)c(OC)cc4[C@@H]2C3=O)O1 [Rotenone] | 0.05899 | 0.1062 | −0.02184 | 0.02467 | 0.05103 | 0.07793 | 0.2003 | −0.1722 | −0.005403 | 0.01051 | −0.007377 | 0.1413 | 0.1563 | 0.007832 | 0.003921 | −0.02255 | −0.01964 | 0.0438 | 0.1384 | 0.04769 | AUC HT.EGTA (HT-1080, modulator EGTA): 0.002258; HT.bCarotene (AUC): 0.003594; HT.deferox (AUC): 0.347; HT.digoxin (AUC): 0.1617; HT.trolox (AUC): 0.003895; HT.zVAD (AUC): 0.01972; AUC, modulator HT.3MA: 0.06289; AUC, modulator HT.ALLN: 0.07973
